Results: PMC10860144, “Exploring the Dispersion and Electrostatic Components in Arene–Arene Interactions between Ligands and G4 DNA to Develop G4-Ligands” (Journal of Medicinal Chemistry, 2024)

How the values were obtained:
[1] = logD at pH 7.4; type: physicochemical
Protocol: Physicochemical properties
The Physicochemical profiling (LogD, Solubility, Caco-2 cell permeability) was performed as previously
described.8 Cell viability was performed as described below.
Table S2. Pharmacokinetic Properties
Compound Structure logD, Solubility, Rat hepsa Human mics b

[2] = system: G4 structure on DNA template (PEPu24T); assay: Taq polymerase stop (primer extension) assay, G4 template; type: biochemical
Excerpt: To challenge all the synthesized compounds (2–11 and 25–29) in a more intricate context, we conducted a Taq polymerase stop assay to evaluate their capacity to impede DNA synthesis through G4 stabilization. In this assay, we compared the progress of the Taq DNA polymerase along two distinct DNA templates: one with a G4 structure (Figure 5) and another serving as a non-G4 control (Figure S21). If an external species (e.g., G4 ligand) binds and stabilizes the G4 structure, the polymerase will be partially halted. The extent of this DNA polymerase stalling is dependent on the ability of the compound to stabilize the G4 on the DNA template. The increased G4 stabilization can be detected as a reduction in the amount of newly synthesized DNA that has reached the end of the DNA template (full-length/end-product). Analysis of these shorter terminated DNA products will give information about the precise location of the DNA polymerase stalling with a single nucleotide resolution. If the ligand imposes little to no stabilization or binding, the G4 is readily resolved by the DNA polymerase, and no difference in the amount of DNA end-product can therefore be expected upon the addition of the compound.
Templates for the primer extension assay were created by annealing 25 nt TET labeled primer (1 μM final concentration) to either PEPu24T or a mutated sequence not forming a G4, PEPu24T mut, (1.25 μM final concentration) in 100 mM KCl by heating to 95 °C for 5 min and slowly cooling to room temperature. […] Compounds were added in the indicated concentration and incubated on ice for 10 min before starting the reaction by adding dNTPs (100 μM final concentration) to the reaction and transferring it to 37 °C. Reactions were stopped after 15 min by addition of 10 μL of formamide loading buffer (0.5% SDS, 25 mM EDTA, 95% v/v formamide and xylene-cyanol). Samples were then loaded on a 12% polyacrylamide gel containing 7 M urea and 25% formamide and imaged using an Amersham Typhoon. The images were quantified using ImageJ 1.53e software, and the percentage of full-length product compared to a sample without compound was calculated.
Templates for the primer extension assay were created by annealing 25nt TET labelled primer (1 µM final concentration) to either PEPu24T or a mutated sequence not forming a G4, PEPu24T mut, (1.25 µM final concentration) in 100 mM KCl by heating to 95 °C for 5 min and slowly cooling to room temperature. The reaction mixture (10 µl) contained 1X Taq Buffer with KCl (10 mM Tris-HCl pH 8.8, 50 mM KCl, detergent), 25 mM MgCl2, […]
[…] Compounds were added in the indicated concentration and incubated on ice for 10 min before starting the reaction by adding dNTPs (100 µM final concentration) to the reaction and transferring it to 37 °C. Reactions were stopped after 15 min by addition of 10 µl of formamide loading buffer (0,5% SDS, 25 mM EDTA, 95% v/v formamide and xylene-cyanol). Samples were then loaded on a 12% polyacrylamide gel containing 7 M urea and 25% formamide and imaged using an Amersham™ Typhoon™.
The images were quantified using ImageJ 1.53e software and the percentage of full-length product compared to a sample without compound was calculated. […]

[3] = Intrinsic clearance in rat hepatocytes; type: in vitro ADME
Protocol: All compounds (2–11, 25–29) were screened for their logD and solubility at pH 7.4 and for their intrinsic clearance in rat hepatocytes and human microsomes (Table S2). […] Replacing the basic amine side chain to a methyl substituent in the quinazolines (25–29) still retained good solubility (134 to over 1000 μM) but increased clearance in both rat hepatocytes and human microsomes. The logD was low for compounds with a basic amine side chain (2–11) and increased slightly when the amine was replaced with a methyl (25–29). As expected, additional substituents also affected the logD with the chloro-substituents increasing logD the most.
a Intrinsic clearance in rat hepatocytes ((μL/min)/10^6 cells).b Intrinsic clearance in human microsomes (μL/min/mg). […]

[4] = molecular target: Pu24T c-MYC G4 structure; assay: Kd for binding to the Pu24T c-MYC G4 structure (supplementary CSV); parameters: species or system human
Protocol: 5′-Cy5 labeled G4 DNAs for this study were purchased from Eurofins Genomics. Stock solutions were prepared in water at 100 μM concentration. The sequences used are listed in Supporting Information Table S1. The G4 DNA sequences were folded in KCl buffer (10 mM phosphate, 100 mM KCl, pH 7.4) by heating at 95 °C for 5 min and then cooling to room temperature. All the experiments were performed in 10 mM phosphate pH 7.4, 100 mM KCl, and 0.05% Tween20. The labeled DNA concentration is held constant at 25 nM, and ligand concentration is varied depending on ligands Kd (16 1:3 dilutions). The samples were loaded into standard MST graded glass capillaries and initial fluorescence intensity of the capillary was measured using Monolith NT.115 (Nano Temper, Germany) with 20% LED power. The change in fluorescence with ligand’s concentrations were plotted in Excel and fitted through nonlinear equation to obtain the binding constants.
The Supporting Information is available free of charge at https://pubs.acs.org/doi/10.1021/acs.jmedchem.3c02127. • Experimental procedures and data; assay data, computational results, and all cell data; NMR (^1H and ^13C) spectra for all compounds (with the exception of a few intermediates); and HPLC UV traces for the final compounds (PDF) • Molecular formula strings and Kd values for binding to the Pu24T c-MYC G4 structure (CSV)

logD [1] | full-length DNA product ([2]; compound 0.24 μM, compared to DMSO control) | Rat heps: intrinsic clearance in rat hepatocytes [3] | Kd [4] | blocking of the Taq DNA polymerase at the G4 structure (in words) ([2]; compound 0.24 μM) | IC50 ([2]; G4 template, DNA 0.048 μM, read-out: concentration reaching 50% inhibition of DNA end-product) | SMILES
-0.1 | about 65% | 8 (μL/min)/106 cells | 1400 ± 300 nM |  |  | Cc1cc(NCCCN(C)C)nc(Nc2ncc3ccccc3n2)n1 [Compound 2, N4-(3-(Dimethylamino)propyl)-6-methyl-N2-(quinazolin-2-yl)pyrimidine-2,4-diamine]
0.6 |  | 1 (μL/min)/106 cells | 50 ± 4 nM | almost completely blocked |  | Cc1cc(C)c2nc(Nc3nc(C)cc(NCCCN(C)C)n3)nc(C)c2c1 [Compound 5, N4-(3-(Dimethylamino)propyl)-6-methyl-N2-(4,6,8-trimethylquinazolin-2-yl)pyrimidine-2,4-diamine]
2.9 |  | 27 (μL/min)/106 cells | 800 ± 100 nM |  | 1200 nM | Cc1cc(C)c2nc(Nc3nc(C)cc(C)n3)nc(C)c2c1 [Compound 27, N-(4,6-Dimethylpyrimidin-2-yl)-4,6,8-trimethylquinazolin-2-amine]
